Our source for the Kd values is PMC10470200 (The Journal of Biological Chemistry, 2023).

Assay [1] concerns the target T1, cytochrome P450 3A4 (CYP3A4) (Homo sapiens, UniProt P08684).
T1 construct: Δ3-22 CYP3A4
In words: equilibrium spectral titration, Hill fit (S50; nH […]). The assay is classed as binding.

Assay [2] has as its target T2, cytochrome P450 3A4 (CYP3A4) (Homo sapiens, UniProt P08684, F219A).
T2 construct: Δ3-22 CYP3A4
The description is as above. The assay is classed as binding.

T2 sequence (P08684 23-503 F219A): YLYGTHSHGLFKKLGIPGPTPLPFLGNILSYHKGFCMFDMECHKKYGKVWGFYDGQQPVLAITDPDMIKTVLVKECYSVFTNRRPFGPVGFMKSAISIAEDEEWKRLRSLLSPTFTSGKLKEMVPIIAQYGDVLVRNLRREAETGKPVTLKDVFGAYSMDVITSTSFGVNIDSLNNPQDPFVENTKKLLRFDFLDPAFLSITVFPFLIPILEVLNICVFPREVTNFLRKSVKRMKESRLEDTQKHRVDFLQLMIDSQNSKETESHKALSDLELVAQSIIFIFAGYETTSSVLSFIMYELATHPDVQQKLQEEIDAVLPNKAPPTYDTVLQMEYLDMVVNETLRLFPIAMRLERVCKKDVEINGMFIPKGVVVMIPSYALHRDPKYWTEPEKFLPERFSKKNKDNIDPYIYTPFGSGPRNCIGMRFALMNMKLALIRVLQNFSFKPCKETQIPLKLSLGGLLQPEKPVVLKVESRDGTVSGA
T1 sequence (P08684 23-503): as the sequence (P08684 23-503 F219A) above, with A197F counted along it

As for `CC(=O)[C@H]1CC[C@H]2[C@@H]3CCC4=CC(=O)CC[C@]4(C)[C@H]3CC[C@]12C` [PRG, progesterone], the figures for the Kd in assay [1] and in assay [2] were 103 ± 3 µM and 158 ± 9 µM, respectively.
